Target: T1, HCMV polymerase (Human cytomegalovirus, UniProt P08546)
T1 construct: made in house; host or cells: recombinant baculovirus-infected SF-9 cells
Assay: HCMV polymerase scintillation proximity assay (SPA), modified version
Format: biochemical
Conditions: CMV polymerase; Table 1; modified assay with 4.5 mM DTT, compounds in 100% DMSO; read-out: Antiviral Selective Polymerase IC50 Values, CMV
In short: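 SPA measuring 3H-dTTP (90 nM) incorporation on 6 nM biotinylated poly(dA)-oligo(dT) by SF-9-expressed enzyme, pH 7.5 HEPES/KCl/MgCl2/BSA buffer with or without 2 mM CHAPS. Run at 25° C or 37° C, stopped with EDTA while linear (HCMV 30 min); IC50 from linear regression. Modified format adds 4.5 mM DTT, compounds diluted in 100% DMSO.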

T1 sequence (P08546 whole entry): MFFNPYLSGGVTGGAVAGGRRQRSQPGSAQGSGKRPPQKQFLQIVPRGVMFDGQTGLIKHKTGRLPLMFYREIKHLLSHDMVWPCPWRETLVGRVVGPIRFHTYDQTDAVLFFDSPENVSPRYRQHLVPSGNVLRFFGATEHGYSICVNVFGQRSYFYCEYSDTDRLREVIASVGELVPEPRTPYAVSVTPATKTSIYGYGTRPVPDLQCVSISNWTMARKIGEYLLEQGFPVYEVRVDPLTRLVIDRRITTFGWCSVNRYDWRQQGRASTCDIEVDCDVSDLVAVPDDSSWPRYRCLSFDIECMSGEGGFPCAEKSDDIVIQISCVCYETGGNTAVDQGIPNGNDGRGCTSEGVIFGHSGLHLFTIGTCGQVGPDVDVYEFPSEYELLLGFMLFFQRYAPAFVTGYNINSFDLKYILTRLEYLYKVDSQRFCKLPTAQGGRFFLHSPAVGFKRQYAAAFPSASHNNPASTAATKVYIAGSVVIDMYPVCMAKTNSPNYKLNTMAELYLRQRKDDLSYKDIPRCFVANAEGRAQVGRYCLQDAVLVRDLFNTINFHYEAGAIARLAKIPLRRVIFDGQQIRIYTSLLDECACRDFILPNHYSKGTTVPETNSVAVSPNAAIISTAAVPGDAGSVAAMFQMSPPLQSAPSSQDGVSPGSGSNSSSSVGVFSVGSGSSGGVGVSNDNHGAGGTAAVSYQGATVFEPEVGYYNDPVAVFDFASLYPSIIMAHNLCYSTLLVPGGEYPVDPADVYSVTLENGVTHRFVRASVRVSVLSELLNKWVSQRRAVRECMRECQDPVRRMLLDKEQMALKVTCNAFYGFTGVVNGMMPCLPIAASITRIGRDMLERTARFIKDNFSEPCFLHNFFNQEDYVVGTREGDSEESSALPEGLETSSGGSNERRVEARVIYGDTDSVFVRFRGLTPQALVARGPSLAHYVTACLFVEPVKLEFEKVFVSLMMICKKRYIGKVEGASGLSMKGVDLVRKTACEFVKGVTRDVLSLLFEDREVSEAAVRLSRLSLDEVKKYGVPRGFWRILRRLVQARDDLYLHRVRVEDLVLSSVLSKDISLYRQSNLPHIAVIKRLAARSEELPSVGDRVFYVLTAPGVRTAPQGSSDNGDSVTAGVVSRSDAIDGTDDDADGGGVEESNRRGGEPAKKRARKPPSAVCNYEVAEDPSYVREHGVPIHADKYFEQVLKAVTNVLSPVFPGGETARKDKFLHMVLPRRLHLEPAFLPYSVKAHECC

Row | IC50 [µM] | Structure (SMILES)
1 | 15.2 | CC(C)(C)OC(=O)CCNS(=O)(=O)c1cc(F)c2ncc(C(=O)NCc3ccc(Cl)cc3)c(O)c2c1 [Example 258, tert-butyl 3-{[(3-{[(4-chlorobenzyl)amino]carbonyl}-8-fluoro-4-hydroxy-6-quinolinyl)sulfonyl]amino}propanoate]
2 | 23.1 | O=C(NCc1ccc(Cl)cc1)c1cnc2c(F)cc(S(=O)(=O)NCCSCCO)cc2c1O [Example 263, N-(4-chlorobenzyl)-8-fluoro-4-hydroxy-6-[({2-[(2-hydroxyethyl)-sulfanyl]ethyl}amino)sulfonyl]-3-quinolinecarboxamide]
3 | 90.2 | CC(C)(N)CNS(=O)(=O)c1cc(F)c2ncc(C(=O)NCc3ccc(Cl)cc3)c(O)c2c1 [Example 264, 6-{[(2-amino-2-methylpropyl)amino]sulfonyl}-N-(4-chlorobenzyl)-8-fluoro-4-hydroxy-3-quinolinecarboxamide]
4 | 11.4 | NC(=O)CNS(=O)(=O)c1cc(F)c2ncc(C(=O)NCc3ccc(Cl)cc3)c(O)c2c1 [Example 265, 6-{[(2-amino-2-oxoethyl)amino]sulfonyl}-N-(4-chlorobenzyl)-8-fluoro-4-hydroxy-3-quinolinecarboxamide]
5 | 52.2 | CC(C)(C)OP(=O)(OCCCc1cc(F)c2ncc(C(=O)NCc3ccc(Cl)cc3)c(O)c2c1)OC(C)(C)C [Example 267, Di(tert-butyl) 3-(3-{[(4-chlorobenzyl)amino]carbonyl}-8-fluoro-4-hydroxy-6-quinolinyl)propyl phosphate]
6 | 9.5 | O=C(NCc1ccc(Cl)cc1)c1cnc2c(F)cc(CCCOP(=O)(O)O)cc2c1O [Example 268, 3-(3-{[(4-Chlorobenzyl)amino]carbonyl}-8-fluoro-4-hydroxy-6-quinolinyl)propyl dihydrogen phosphate]
7 | 9.8 | O=C(NCc1ccc(Cl)cc1)c1cnc2ccc(CCCOP(=O)(O)O)cc2c1O [Example 269, 3-(3-{[(4-Chlorobenzyl)amino]carbonyl-4-hydroxy-6-quinolinyl)propyldihydrogen phosphate]
8 | 20.4 | CC(C)(C)O[PH](=O)OCCCc1cc(F)c2ncc(C(=O)NCc3ccc(Cl)cc3)c(O)c2c1 (centres unmarked) [Example 271, tert-Butyl 3-(3-{[(4-chlorobenzyl)amino]carbonyl}-8-fluoro-4-hydroxy-6-quinolinyl)propyl phosphonate]

More lines, now with the values behind:

Row | Structure (SMILES) | IC50 [µM]
9 | O=C(NCc1ccc(Cl)cc1)c1cnc2c(F)cc(S(=O)(=O)NCc3cccc(OC(F)(F)F)c3)cc2c1O [Example 259, N-(4-chlorobenzyl)-8-fluoro-4-hydroxy-6-({[3-(trifluoro-methoxy)benzyl]amino}sulfonyl)-3-quinolinecarboxamide] | 6.1
10 | O=C(NCc1ccc(Cl)cc1)c1cnc2c(F)cc(S(=O)(=O)NCc3ccccc3Sc3ccccc3CO)cc2c1O [Example 260] | 5.7
11 | O=C(NCc1ccc(Cl)cc1)c1cnc2c(F)cc(S(=O)(=O)NCc3ccc(-c4csnn4)cc3)cc2c1O [Example 261, N-(4-chlorobenzyl)-8-fluoro-4-hydroxy-6-({[4-(1,2,3-thiadiazol-4-yl)benzyl]amino}sulfonyl)-3-quinolinecarboxamide] | 15.1
12 | O=C(NCc1ccc(Cl)cc1)c1cnc2c(F)cc(S(=O)(=O)NCc3ccc(Cl)cc3F)cc2c1O [Example 262, N-(4-chlorobenzyl)-6-{[(4-chloro-2-fluorobenzyl)amino]sulfonyl}-8-fluoro-4-hydroxy-3-quinolinecarboxamide] | 9.9
13 | Nc1ccc(CNS(=O)(=O)c2cc(F)c3ncc(C(=O)NCc4ccc(Cl)cc4)c(O)c3c2)cc1 [Example 266, 6-{[(4-aminobenzyl)amino]sulfonyl}-N-(4-chlorobenzyl)-8-fluoro-4-hydroxy-3-quinolinecarboxamide] | 10.1
14 | CC(C)(C)O[PH](=O)OCCCc1ccc2ncc(C(=O)NCc3ccc(Cl)cc3)c(O)c2c1 (centres unmarked) [Example 270, tert-Butyl 3-(3-{[(4-chlorobenzyl)amino]carbonyl}-4-hydroxy-6-quinolinyl)propyl phosphonate] | 2.8
